Patent publication US20210113522A1, “COUMARIN DERIVATIVE AS ANTI-ASTHMATIC AGENT, PHARMACEUTICAL COMPOSITION THEREOF, ITS PREPARATION AND USE” (I-NOVA MEDICINSKA ISTRAZIVANJA D.O.O., priority 2017, published 2021)

Test system: croton oil-induced ear edema
Test: Croton oil-induced ear edema in mice
Type: in vivo, Balb/c mice
Details: dexamethasone 1 mg/kg, 1 2 mg/kg
Excerpt: The presents study aims to detect the inflammatory/anti-inflammatory potential effects of compound 1 in a model of acute skin inflammation induced by local application of phlogistic agent croton oil in Balb/c mice. The technique for croton oil-induced ear edema in mice, originally described by Tubaro et al., was followed, with modifications; see literature references 16 and 17: • 16) A. Tubaro, P. Dri, G. Delbello, C. Zilli, R. Della Loggia: The croton oil ear test revisited, Agents Actions 17 (1986) 347-349. • 17) G. Coruzzi, C. Pozzoli, M. Adami, D. Grandi, N. Guido, R. Smits, I. de Esch and R. Leurs: Strain-dependent effects of the histamine H4 receptor antagonist JNJ7777120 in a murine model of acute skin inflammation, Experimental Dermatology 21 (2011) 32-37.
Mice (total 40) were separated into 4 groups (n=10). Each group was treated under different regimen:
Cutaneous inflammation was induced in conscious mice by topical application of croton oil (5% in acetone).
Six hours after croton oil application, mice were euthanized by light ether anaesthesia, followed by cervical dislocation; both left (acetone) and right (croton oil in acetone) ears were removed, by cutting horizontally across the indentation at the base of the ear. For each mouse, the extent of the oedema was expressed as the difference in weight (Δ [mg]) between right (inflamed) and left (uninflamed) ear. The percentage increase in the oedema of the treated ear was calculated by the following formula: […]
The presents study aims to detect the inflammatory/anti-inflammatory potential effects of compound 1 in a model of acute skin inflammation induced by local application of phlogistic agent croton oil in Balb/c mice. The technique for croton oil-induced ear edema in mice, originally described by Tubaro et al., was followed, with modifications; see literature references 16 and 17.
In preliminary experiments, the effect of subcutaneous (s.c.) administration of saline, 100% DMSO or 20% 2-hydroxypropyl-β-cyclodextrin was investigated to check the vehicle effects on ear inflammation.
The statistical significance between the groups was assessed by one-way analysis of variance (ANOVA) followed by a post hoc Tukey test. The accepted level of significance for the test was P<0.05. All tests were carried out using GraphPad Software (San Diego, Calif., USA).

## O=c1oc2cc(O)cc(O)c2c(O)c1-c1coc2c1c(=O)oc1cc(O)cc(O)c12 [Compound 1, 7,9-dihydroxy-3-(4,5,7-trihydroxy-2-oxo-2H-chromene-3-yl)-4H-furo[3,2-c]chromen-4-one]
6 h after croton oil
  Ear edema Δm (right minus left ear): 0.0321 g
  Percentage of increasing the ear edema: 92.98%
Balb/c mice, 6 h
  Maximal inhibition of croton oil-induced ear oedema: ~40%
Left ear: 80% 2HPβCD + 20% DMSO (uninflamed), 6 h
  Left ear m: 0.0344 g
Right ear: substance + croton oil after 30 min, 6 h
  Right ear m: 0.0665 g
